Data reported in PMC11992225, “Antibacterial compounds against non-growing and intracellular bacteria” (npj Antimicrobials and Resistance, 2025).
“And” between values parts separate entries of the source, which are not always exact repeats. Equal values may be shown once.

Test system: non-growing S. aureus DSM2569
Assay: Dose-dependent killing analysis (CFU spot-plating) of stationary-phase S. aureus
Type: cell-based, Staphylococcus aureus
Conditions: for log10(CFU/ml) after treatment / log10(CFU/ml) after treatment, single replicates / Killing: average Δlog10(CFU/ml) / killing, average Δlog10(CFU/ml) / log10(CFU/ml) of treated nongrowing bacteria (single replicates): S. aureus; for log10(CFU/ml) after treatment: individual replicates; for Killing: average Δlog10(CFU/ml): vs 9,097 before treatment; for log10(CFU/ml) of treated nongrowing bacteria (single replicates): before treatment 9,097
Procedure: To determine the spectrum of activity of the compounds that were effective against non-growing UPEC, we further assessed their efficacy against the well-characterized Gram-negative and Gram-positive reference strains P. aeruginosa DSM1117 and S. aureus DSM2569, respectively. The cultures were grown and treated for 24 h in 1:4 CA-MHB (pH 7.4). […].
For survival analysis, bacteria were cultivated as described for the dose–response dilution-regrowth assay. Assays with UPEC were conducted at the CBCS screening facility using 96-well plates with a 200 μl sample volume, and compounds were dispensed using the Echo® (Labcyte) system. P. aeruginosa and S. aureus samples were treated according to the protocol used for the dilution-regrowth experiments. Treated samples were serially diluted 10-fold in PBS, and 10 μl drops were spot-plated onto rectangular LB agar plates using either a Beckman NXP robot (for UPEC) or an Integra VIAFLO96 electronic pipette (for P. aeruginosa and S. aureus). The LB agar plates were incubated overnight at 37 °C and scanned. Colonies were counted at the spots of the lowest dilution where individual colonies could be accurately distinguished. Each colony was manually marked on a separate image layer using the GNU Image Manipulation Program, and counted using NIST’s Integrated Colony Enumerator (NICE 1.4) software. The experiments were performed in three biological replicates.

CCCCCCCCN=c1ccn(CCCCCCCCCCn2ccc(=NCCCCCCCC)cc2)cc1 [Octenidine]
log10(CFU/ml) after treatment (concentration 0.1): 8.505 log10(CFU/ml) and 8.653 log10(CFU/ml) and 8.820 log10(CFU/ml)
log10(CFU/ml) after treatment (concentration 0.5): 8.114 log10(CFU/ml) and 8.380 log10(CFU/ml) and 8.643 log10(CFU/ml)
log10(CFU/ml) after treatment (concentration 2.5): 6.322 log10(CFU/ml) and 7.690 log10(CFU/ml) and 8.255 log10(CFU/ml)
reduction of non-growing S. aureus (at 10 µM, 24 h treatment): below the limit of detection

CO[C@H]1/C=C/O[C@@]2(C)Oc3c(C)c(O)c4c(c3C2=O)C2=NC3(CCN(CC(C)C)CC3)NC2=C(NC(=O)/C(C)=C\C=C\[C@H](C)[C@H](O)[C@@H](C)[C@@H](O)[C@@H](C)[C@H](OC(C)=O)[C@@H]1C)C4=O [Rifabutin]
log10(CFU/ml) after treatment, single replicates (concentration 0.1): 8.833 log10(CFU/ml) and 8.875 log10(CFU/ml) and 8.763 log10(CFU/ml)
Killing: average Δlog10(CFU/ml) (concentration 0.1): 0.273 log10(CFU/ml)
log10(CFU/ml) after treatment, single replicates (concentration 0.5): 8.869 log10(CFU/ml) and 8.996 log10(CFU/ml) and 8.079 log10(CFU/ml)
Killing: average Δlog10(CFU/ml) (concentration 0.5): 0.449 log10(CFU/ml)
log10(CFU/ml) after treatment, single replicates (concentration 2.5): 8.763 log10(CFU/ml) and 8.785 log10(CFU/ml) and 8.643 log10(CFU/ml)
Killing: average Δlog10(CFU/ml) (concentration 2.5): 0.366 log10(CFU/ml)
log10(CFU/ml) after treatment, single replicates (concentration 10): 8.778 log10(CFU/ml) and 8.806 log10(CFU/ml) and 8.756 log10(CFU/ml)
Killing: average Δlog10(CFU/ml) (concentration 10): 0.317 log10(CFU/ml)

CO[C@H]1/C=C/O[C@@]2(C)Oc3c(C)c(O)c4c(O)c(c(/C=N/N5CCN(C6CCCC6)CC5)c(O)c4c3C2=O)NC(=O)/C(C)=C\C=C\[C@H](C)[C@H](O)[C@@H](C)[C@@H](O)[C@@H](C)[C@H](OC(C)=O)[C@@H]1C [Rifapentine]
log10(CFU/ml) after treatment, single replicates (concentration 0.1): 8.708 log10(CFU/ml) and 8.968 log10(CFU/ml) and 8.653 log10(CFU/ml)
Killing: average Δlog10(CFU/ml) (concentration 0.1): 0.321 log10(CFU/ml)
log10(CFU/ml) after treatment, single replicates (concentration 0.5): 8.732 log10(CFU/ml) and 8.954 log10(CFU/ml) and 8.491 log10(CFU/ml)
Killing: average Δlog10(CFU/ml) (concentration 0.5): 0.371 log10(CFU/ml)
log10(CFU/ml) after treatment, single replicates (concentration 2.5): 8.672 log10(CFU/ml) and 8.748 log10(CFU/ml) and 8.643 log10(CFU/ml)
Killing: average Δlog10(CFU/ml) (concentration 2.5): 0.409 log10(CFU/ml)
log10(CFU/ml) after treatment, single replicates (concentration 10): 8.756 log10(CFU/ml) and 8.477 log10(CFU/ml) and 8.544 log10(CFU/ml)
Killing: average Δlog10(CFU/ml) (concentration 10): 0.505 log10(CFU/ml)

O=C(O)c1cn(-c2ccc(F)cc2)c2cc(N3CCNCC3)c(F)cc2c1=O [Sarafloxacin]
killing, average Δlog10(CFU/ml) (drug concentration 0.1): 0.203 log10(CFU/ml)
log10(CFU/ml) of treated nongrowing bacteria (single replicates) (drug concentration 0.1): 8.845 log10(CFU/ml) and 8.903 log10(CFU/ml) and 8.934 log10(CFU/ml)
killing, average Δlog10(CFU/ml) (drug concentration 0.5): 0.133 log10(CFU/ml)
log10(CFU/ml) of treated nongrowing bacteria (single replicates) (drug concentration 0.5): 8.869 log10(CFU/ml) and 9.111 log10(CFU/ml) and 8.914 log10(CFU/ml)
killing, average Δlog10(CFU/ml) (drug concentration 2.5): 0.565 log10(CFU/ml)
log10(CFU/ml) of treated nongrowing bacteria (single replicates) (drug concentration 2.5): 8.681 log10(CFU/ml) and 8.914 log10(CFU/ml) and 8.000 log10(CFU/ml)
killing, average Δlog10(CFU/ml) (drug concentration 10): 0.598 log10(CFU/ml)
log10(CFU/ml) of treated nongrowing bacteria (single replicates) (drug concentration 10): 8.462 log10(CFU/ml) and 8.653 log10(CFU/ml) and 8.380 log10(CFU/ml)

N[C@@H]1CN(c2c(F)cc3c(=O)c(C(=O)O)cn([C@@H]4C[C@@H]4F)c3c2Cl)CC12CC2 [Sitafloxacin]
killing of non-growing S. aureus (reduction of bacterial counts) (10 to 0.1 μM, 24 h treatment): the most activity
killing, average Δlog10(CFU/ml) (drug concentration 0.1): 0.348 log10(CFU/ml)
log10(CFU/ml) of treated nongrowing bacteria (single replicates) (drug concentration 0.1): 8.602 log10(CFU/ml) and 8.881 log10(CFU/ml) and 8.763 log10(CFU/ml)
killing, average Δlog10(CFU/ml) (drug concentration 0.5): 1.504 log10(CFU/ml)
log10(CFU/ml) of treated nongrowing bacteria (single replicates) (drug concentration 0.5): 7.223 log10(CFU/ml) and 7.833 log10(CFU/ml) and 7.724 log10(CFU/ml)
killing, average Δlog10(CFU/ml) (drug concentration 2.5): 2.447 log10(CFU/ml)
log10(CFU/ml) of treated nongrowing bacteria (single replicates) (drug concentration 2.5): 6.820 log10(CFU/ml) and 6.716 log10(CFU/ml) and 6.413 log10(CFU/ml)
killing, average Δlog10(CFU/ml) (drug concentration 10): 2.500 log10(CFU/ml)
log10(CFU/ml) of treated nongrowing bacteria (single replicates) (drug concentration 10): 6.908 log10(CFU/ml) and 6.613 log10(CFU/ml) and 6.270 log10(CFU/ml)

NC1CCN(c2nc3c(cc2F)c(=O)c(C(=O)O)cn3-c2ccc(F)cc2F)C1 (stereo not drawn) [Tosufloxacin]
killing, average Δlog10(CFU/ml) (drug concentration 0.1): 0.037 log10(CFU/ml)
log10(CFU/ml) of treated nongrowing bacteria (single replicates) (drug concentration 0.1): 8.845 log10(CFU/ml) and 9.301 log10(CFU/ml) and 9.033 log10(CFU/ml)
killing, average Δlog10(CFU/ml) (drug concentration 0.5): 0.330 log10(CFU/ml)
log10(CFU/ml) of treated nongrowing bacteria (single replicates) (drug concentration 0.5): 8.690 log10(CFU/ml) and 8.869 log10(CFU/ml) and 8.740 log10(CFU/ml)
killing, average Δlog10(CFU/ml) (drug concentration 2.5): 0.522 log10(CFU/ml)
log10(CFU/ml) of treated nongrowing bacteria (single replicates) (drug concentration 2.5): 8.580 log10(CFU/ml) and 8.898 log10(CFU/ml) and 8.248 log10(CFU/ml)
killing, average Δlog10(CFU/ml) (drug concentration 10): 0.688 log10(CFU/ml)
log10(CFU/ml) of treated nongrowing bacteria (single replicates) (drug concentration 10): 8.531 log10(CFU/ml) and 8.663 log10(CFU/ml) and 8.033 log10(CFU/ml)
